Values belong to the compound of their own block, whether it stands above or below them.
Tests used:
HLA-DRB1*0401 (DR4w4) = HLA-DRB1*0401 (DR4w4) (Homo sapiens, UniProt P01903+P01911, A100K/A169T/F76Y/I96L/K127E/L162R/M171V/N62H/P40V/Q125Y/R42H/S133A/S149N/S66Y/V115G/V209L/W38E); test: Purified HLA class II peptide binding assay, DRB1*0401
HLA-A*0202 = HLA-A*0202 (Homo sapiens, UniProt P04439, D140Y/D185E/D98H/E176V/E277Q/G131W/G231S/I119L/I121R/I166T/I218V/L180W/L300P/L318F/N151K/N90K/P208A/P217A/Q67R/Q86G/Q94H/R138H/R169H/T345S); test: Purified HLA class I peptide binding assay, A*0202; conditions: binding affinity, A2 supermotif peptides and analogs
HLA-A*0203 = HLA-A*0203 (Homo sapiens, UniProt P04439, A173T/D140Y/D185E/D98H/E277Q/G131W/G231S/I119V/I121R/I166T/I218V/L180W/L300P/L318F/N151K/N90K/P208A/P217A/Q86G/Q94H/R138H/R169H/T345S); test: Purified HLA class I peptide binding assay, A*0203; conditions: binding affinity, A2 supermotif peptides and analogs
HLA-A*0206 = HLA-A*0206 (Homo sapiens, UniProt P04439, D140Y/D185E/D98H/E176V/E277Q/F33Y/G131W/G231S/I119V/I121R/I166T/I218V/L300P/L318F/N151K/N90K/P208A/P217A/Q86G/Q94H/R138H/R169H/T345S); test: Purified HLA class I peptide binding assay, A*0206; conditions: binding affinity, A2 supermotif peptides and analogs
HLA-A*6802 = HLA-A*6802 (Homo sapiens, UniProt P04439, A269V/D140Y/D185E/E176V/E277Q/E87N/F33Y/G231S/I121R/I166T/I218V/L180W/L300P/L318F/N151K/P208A/P217A/Q86R/R138H/R169H/S129P/T345S/V36M); test: Purified HLA class I peptide binding assay, A*6802; conditions: binding affinity, A2 supermotif peptides and analogs
HLA-A*0301 = HLA-A*0301 (Homo sapiens, UniProt P04439); test: Purified HLA class I peptide binding assay, A*0301; conditions: binding affinity, HLA-A3 supermotif-bearing peptides
HLA-A*1101 = HLA-A*1101 (Homo sapiens, UniProt P04439, A114D/D185E/E176A/F33Y/L180Q/S129P/T187R); test: Purified HLA class I peptide binding assay, A*1101; conditions: binding affinity, HLA-A3 supermotif-bearing peptides
HLA-A*3101 = HLA-A*3101 (Homo sapiens, UniProt P04439, A270S/D185E/E176V/E277Q/F33T/G231S/G80R/H175R/I121M/I218V/I322F/K168Q/L300P/L318F/M331R/P217A/Q94H/R138Q/T323A/T345S/T97I/V358M); test: Purified HLA class I peptide binding assay, A*3101; conditions: binding affinity, HLA-A3 supermotif-bearing peptides
HLA-A*3301 = HLA-A*3301 (Homo sapiens, UniProt P04439, A270S/D185E/E176V/E277Q/E87N/F33T/G231S/H175R/I121M/I218V/I322F/K168Q/K210R/L300P/L318F/M331R/P217A/Q86R/Q94H/R138Q/T323A/T345S/T97I/V358M/Y195H); test: Purified HLA class I peptide binding assay, A*3301; conditions: binding affinity, HLA-A3 supermotif-bearing peptides
HLA-A*6801 = HLA-A*6801 (Homo sapiens, UniProt P04439, A269V/D185E/E176V/E277Q/E87N/F33Y/G231S/I121M/I166T/I218V/L180W/L300P/L318F/N151K/P208A/P217A/Q86R/R169H/T345S); test: Purified HLA class I peptide binding assay, A*6801; conditions: binding affinity, HLA-A3 supermotif-bearing peptides
[1] = tested on: peptide-specific CTL from PBMC; test: CTL immunogenicity of A3, B7 supermotif and A1, A24 motif peptides (methodology analogous to A2); type: cell-based, human; conditions: positive/tested

IC50 (HLA-DRB1*0401 (DR4w4)): 3750 nM
SMILES: CC[C@H](C)[C@H](NC(=O)[C@H](C)NC(=O)[C@@H](NC(=O)[C@@H](NC(=O)[C@H](C)NC(=O)[C@H](CC(C)C)NC(=O)[C@@H](NC(=O)[C@@H](NC(=O)[C@@H](NC(=O)[C@H](CC(C)C)NC(=O)[C@@H](N)CC(C)C)[C@@H](C)CC)[C@@H](C)CC)C(C)C)[C@@H](C)CC)[C@@H](C)CC)C(=O)N[C@@H](CCC(=O)O)C(=O)NCC(=O)N[C@@H](CC(=O)O)C(=O)N[C@@H](CS)C(=O)O

IC50 (HLA-A*0202): 729 nM
IC50 (HLA-A*0203): 125 nM
IC50 (HLA-A*0206): 1950 nM
IC50 (HLA-A*6802): 3080 nM
SMILES: CC[C@H](C)[C@H](NC(=O)[C@H](CC(C)C)NC(=O)[C@H](C)N)C(=O)N[C@@H](CCC(=O)O)C(=O)N[C@H](C(=O)N[C@@H](CO)C(=O)N[C@@H](Cc1ccc(O)cc1)C(=O)N[C@H](C(=O)N[C@@H](CCCCN)C(=O)N[C@H](C(=O)O)C(C)C)C(C)C)[C@@H](C)O

IC50 (HLA-A*0301): 136 nM
IC50 (HLA-A*1101): 32 nM
IC50 (HLA-A*3101): 900 nM
IC50 (HLA-A*3301): > 10000 nM
IC50 (HLA-A*6801): 286 nM
SMILES: CC[C@H](C)[C@H](NC(=O)[C@H](CC(C)C)NC(=O)[C@H](C)N)C(=O)N[C@@H](CCC(=O)O)C(=O)N[C@H](C(=O)N[C@@H](CO)C(=O)N[C@@H](Cc1ccc(O)cc1)C(=O)N[C@H](C(=O)N[C@@H](CCCCN)C(=O)O)C(C)C)[C@@H](C)O

SMILES: CC[C@H](C)[C@H](NC(=O)[C@@H](NC(=O)[C@@H](N)[C@@H](C)O)[C@@H](C)O)C(=O)N[C@@H](CC(N)=O)C(=O)N[C@@H](Cc1ccc(O)cc1)C(=O)N[C@H](C(=O)N[C@@H](CC(C)C)C(=O)N[C@@H](Cc1c[nH]c2ccccc12)C(=O)N[C@@H](CCCNC(=N)N)C(=O)O)[C@@H](C)O
CTL Tumor ([1]; CTL recognition of tumor targets): 2/5
CTL Wild-type ([1]; CTL recognition of wild-type peptide): 7/7

From patent US20040053822A1, “Inducing cellular immune responses to mage2/3 using peptide and nucleic acid compositions” (priority 2002, published 2004)
